The values below come from patent US12415811B2, “1,2,3',5'-tetrahydro-2'h-spiro[indole-3,1'-pyrrolo[3,4-C]pyrrole]-2,3'-dione compounds as therapeutic agents activating TP53” (ADAMED PHARMA, S.A., priority 2018, dated 2025).

Where two headings read alike, the source gives them in different places.

The test system of data set [1] is SJSA-1 xenograft. The data set is described as follows: In vivo efficacy in the SJSA-1 xenograft model in mice. The conditions noted are these: for effect of treatment on tumors (in words): 14 doses of 12.5 mg/kg p.o., SJSA-1 xenograft; for inhibition in vivo at 12.5 mg/kg: Mus musculus, po, 12.5 mg/kg p.o., q1d, SJSA-1 xenograft in Crl:CD-1-Foxn1nu mice, mean; for regrowth of lesions during follow-up: after 14 doses of 12.5 mg/kg p.o., follow-up to day 101. On the procedure:
The experiment was conducted on female mice from the Crl:CD-1-Foxn1nu strain. Mice were inoculated subcutaneously in the right flank with cancer cell line SJSA-1 in the amount of 3×10^6 cells suspended in 100 μl HBSS: Matrigel matrix in a 3:1 ratio per mouse. On the 17th day after inoculation mice were divided into groups, so that in each group the mean tumor volume was similar and averaged around 200 mm^3. Experiment groups were selected, each consisting of 8 mice: Control NaCl 0.9% and compounds. Compounds 1-11 were dissolved in 56.60% PEG 400, 9.43% Cremophor RH40, 9.43% ETOH, 18.87% Labrafil M1944CS, 5.67% DMSO. For Compound 107 from WO2015/189799, group of 7 mice was used, and it was dissolved in 15% PEG400, 10% Cremophor EL, 75% H2O.
[…] During the course of experiment mice were weighed before each administration, —twice/thrice a week. Animal welfare was monitored daily. No significant difference in body weight or welfare was observed between experiment groups during and at the end of study.
Change in tumor volume was monitored twice/thrice a week starting from the first day of administration. Tumor volume was calculated based on its length and width measured with an electronic calipers: V[mm^3]=d^2×D/2
The tumor volume in the groups was measured up to 101 days after inoculation (72 days after last administration). Results of the experiment were expressed as mean values of tumor growth inhibition (TGI) ±SEM (Table 4). Tumor growth inhibition was calculated using the following formula TGI [%]=[100−[…]]
where C— mean tumor size in control group, T—mean tumor size in treated group. All calculations and graphs were performed using GraphPad Prism 5 software.

In data set [2] the target is p53-Mdm2 interaction (Homo sapiens (Human), UniProt Q00987). The data set is described as follows: Fluorescence polarization (FP) binding assay, inhibition of p53-Mdm2 interaction. The settings on record: 75 nM Mdm2 (amino acids 1-111), 10 nM FAM-labelled p53 peptide; IC50 transformed to Ki using Kenakin equation. As for the experimental part: The inhibition of p53-Mdm2 interaction was measured using a fluorescence polarization (FP) binding assay. FP measures the rotational movement of molecules in a homogenous suspension. For this assay, N-terminal domain of Mdm2 protein (amino acids 1-111) is combined with a fluorescein-labeled (FAM) peptide derived from p53 trans-activation domain (Sequence: 5-FAM-TSFAEYWNLLSP). Upon excitation of the fluorescent ligand with linearly polarized light the peptide emits perpendicularly polarized light. If the peptide is bound by Mdm2, rotation will slow down and the perpendicular component will proportionally decrease. In opposition disruption of the peptide-Mdm2 complex due to binding of an inhibitor to the p53 binding site of Mdm2 results in releasing of peptide and decreasing of emitted light polarization.
Fluorescence polarization experiments were read on Biotek Cytation 5 reader with the 470 nm excitation and 520 nm emission filters for fluorescein. The fluorescence polarization was measured in black 96-well plates (Corning, CLS3991) in room temperature. Purity of Mdm2 was controlled at >95%. Reaction buffer was optimized by adding 5 mM DTT and 0.1% zwitterionic detergent CHAPS to reduce effect of nonspecific interactions.
The test was performed by combining successive dilution of compounds diluted in dimethyl sulfoxide (DMSO, 5% final concentration) with 75 nM Mdm2 in reaction buffer (PBS, 0.1% CHAPS, 5 mM DTT (dithiothreitol)). After 15 minutes of incubation in room temperature 10 nM FAM-labelled peptide was added. Final reading was performed after 90 minutes of incubation. Dose-dependent binding curves and IC50 values were calculated using GraphPad Prism5 and next transformed to Ki values using Kenakin equation (Table 2).

Data set [3] in a line: In vitro intrinsic clearance in human microsomes. It counts as in vitro ADME. The conditions noted are these: pH 7.4; human microsomes 0.5 mg/ml, 1 μM compound, 37° C., up to 1 hour; read-out: human MS Clint. On the procedure:
(§1) Metabolic stability of the compounds of the invention has been assessed by measurement of the in vitro intrinsic clearance in murine and human microsomes.
(§2) 10 mM stock solutions of markers and test compounds were prepared in DMSO. These were diluted 100-fold in 91:9 MeCN:DMSO to obtain a 100 μM assay stock. 10 mM NADPH was made up in 0.1M phosphate buffer (pH7.4). Microsomes were thawed in a waterbath at 37° C., and diluted to give a final assay concentration of 0.5 mg/ml.
(§3) 100 μM assay stocks were added to give a final concentration of 1 μM to incubation tubes containing buffer and NADPH (final assay concentration is 1 mM). Incubation tubes and microsomes were pre-warmed at 37° C. for 3 minutes. The microsomes were then added to the incubation tubes which were kept at 37° C. and shaken using the orbital shaker for the duration of the assay. Samples were taken at 6 pre-determined time points up to 1 hour and transferred to the prepared quench tubes containing an appropriate solvent with internal standard.
(§4) Quenched samples are mixed thoroughly and protein precipitated at −20° C. for a minimum of 12 hours. Samples were then centrifuged at 4° C. Supernatants were transferred to a fresh 96 well plate, compatible with the auto-sampler. The plate was sealed with a pre-slit silicone mat and analyzed by LC-MS/MS.

Data set [4] can be described thus: In vitro intrinsic clearance in murine microsomes. In kind it is in vitro ADME. The settings on record: mouse, pH 7.4; murine microsomes 0.5 mg/ml, 1 μM compound, 37° C., up to 1 hour; read-out: murine MS Clint. On the procedure: as §1, §2, §3, §4
The test system of data set [5] is SJSA-1 osteosarcoma cell line. As to the kind of experiment: Cell viability MTT assay. It counts as cell-based. The settings on record: Homo sapiens, 72 h incubation, average of 2-5 experiments. As for the experimental part: The effect of the invented p53-Mdm2 inhibitors on cell viability has been assessed using MTT assay. It is a colorimetric assay that measures conversion of tetrazolium ring of the soluble yellow dye (MTT) into insoluble purple formazan. This process is catalyzed solely in mitochondrial dehydrogenases of living cells.
Cells were seeded on 96-well plates and then treated with successive dilutions of tested compounds. After 72 h incubation, MTT was added to the final concentration 0.5 mg/ml. The cells were further incubated for the next 4 h. Then the solution was drained and the remaining formazan crystals were dissolved in 100 μl DMSO. […] All the MTT experiments were independently repeated 2-5 times. Dose-dependent binding curves and IC50 values were calculated using GraphPad Prism 5. The presented IC50 values represent the average value from all the performed experiments (Table 3).
A general note: Tetrazolium dyes change colour on reduction, which living cells bring about.

The mark [6] stands for this setting: after 7 doses, read-out: TGI P.O. 12.5 mg/kg (7 doses) [%].
[7] abbreviates: after 12 doses, read-out: TGI P.O. 12.5 mg/kg (12 doses) [%].

As usually defined, the Ki is the dissociation constant of the complex between target and ligand, obtained from inhibition or displacement. Low readings indicate higher affinity, high ones lower affinity. Usually IC50 stands for the concentration at which inhibition is half-maximal.

Chain of p53-Mdm2 interaction (Q00987 1-111): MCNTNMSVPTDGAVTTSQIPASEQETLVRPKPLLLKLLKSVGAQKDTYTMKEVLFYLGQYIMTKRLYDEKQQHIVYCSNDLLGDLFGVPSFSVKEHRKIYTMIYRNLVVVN

As for `COc1ncc(-n2cc3c(c2C(C)C)[C@@]2(C(=O)Nc4cc(Cl)ccc42)N(c2ccc(F)c(F)c2)C3=O)c(OC)n1` [Compound 7, (3S)-6-chloro-2′-(3,4-difluorophenyl)-5′-(2,4-dimethoxypyrimidin-5-yl)-6′-(propan-2-yl)-1,2,3′,5′-tetrahydro-2′H-spiro[indole-3,1′-pyrrolo[3,4-c]pyrrole]-2,3′-dione], the “effect of treatment on tumors (in words)” value in data set [1] is “complete eradication of tumors”. The inhibition in vivo at 12.5 mg/kg in data set [1] (setting [6]) came out at 95%; in data set [1] (setting [7]), 100%. Moreover, the “regrowth of lesions during follow-up” value in data set [1] was “none of the lesions exhibited regrowth”. Moreover, affinity in data set [2] was put at a Ki of 1.9 nM. Also, the results for the microsomal CLint at 1 μM in data set [3] and in data set [4] were < 3 µL/min/mg and 6.6 µL/min/mg, respectively. The IC50 in data set [5] came out at 0.22 µM.
Regarding `COc1cc(OC)c(-n2cc3c(c2C(C)C)[C@@]2(C(=O)Nc4cc(Cl)ccc42)N(c2ccc(F)c(F)c2)C3=O)cn1` [Compound 8, (3S)-6-chloro-2′-(3,4-difluorophenyl)-5′-(4,6-dimethoxypyridin-3-yl)-6′-(propan-2-yl)-1,2,3′,5′-tetrahydro-2′H-spiro[indole-3,1′-pyrrolo[3,4-c]pyrrole]-2,3′-dione], the “effect of treatment on tumors (in words)” value in data set [1] was “complete eradication of tumors”. Besides, the inhibition in vivo at 12.5 mg/kg in data set [1] (setting [6]) was found to be 96.4%; in data set [1] (setting [7]), 99.7%. In addition, in data set [1], the “regrowth of lesions during follow-up” value is listed as “none of the lesions exhibited regrowth”. Also, the inhibitory constant (Ki) in data set [2] came out at 1.9 nM. The microsomal CLint at 1 μM in data set [3] was < 3 µL/min/mg; in data set [4], 12.8 µL/min/mg. The compound further registered a 50% inhibitory concentration (IC50) in data set [5] of 0.15 µM.
`COc1ncc(-n2cc3c(c2C(C)C)[C@@]2(C(=O)Nc4cc(Cl)ccc42)N(c2cc(Cl)c(F)cc2F)C3=O)c(OC)n1` [Compound 10, (3S)-6-chloro-2′-(5-chloro-2,4-difluorophenyl)-5′-(2,4-dimethoxypyrimidin-5-yl)-6′-(propan-2-yl)-1,2,3′,5′-tetrahydro-2′H-spiro[indole-3,1′-pyrrolo[3,4-c]pyrrole]-2,3′-dione]: the inhibition in vivo at 12.5 mg/kg was determined as 93.5% in data set [1] (setting [6]) and 98.8% in data set [1] (setting [7]). In data set [2], the inhibition constant Ki was 2 nM. Besides, the microsomal CLint at 1 μM is < 3.2 µL/min/mg in data set [3] and < 3 µL/min/mg in data set [4]. Besides, in data set [5], the concentration for half-maximal inhibition (IC50) was 0.4 µM.
